Broadly, the IC50 is the concentration at which inhibition is half-maximal. Low readings indicate inhibition by little substance, high ones a need for much substance.

SMILES strings stand for the structures. Read-outs that look alike come from different tables or passages of the source. Bounds are passed on as bounds.

In patent publication US8273754B2, “Substituted 1H-pyrazolo[3,4-D]pyrimidine-6-amine compounds” (ArQule, Inc., priority 2008, dated 2012) one finds inhibition and IC50 data, which are given here for 14 compounds.

For one test, the system named is cancer cells. Put plainly: MTS cell growth inhibition assay (72 hours). It is filed as cell-based. The gist of the method: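 Cells in DMEM with 1% FBS, seeded 18 h, then compound-treated 72 h at 37 °C. Viability by MTS/PMS for 4 h, formazan absorbance at 492 nm; IC50 taken as concentration giving 50% absorbance drop, activity banded by percent inhibition.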
In the next test the target is T1, FGFR2 (N549H) (Homo sapiens, UniProt P21802, N549H).
T1 construct: purchased Millipore 14-742
T1 sequence (P21802 22-821 N549H): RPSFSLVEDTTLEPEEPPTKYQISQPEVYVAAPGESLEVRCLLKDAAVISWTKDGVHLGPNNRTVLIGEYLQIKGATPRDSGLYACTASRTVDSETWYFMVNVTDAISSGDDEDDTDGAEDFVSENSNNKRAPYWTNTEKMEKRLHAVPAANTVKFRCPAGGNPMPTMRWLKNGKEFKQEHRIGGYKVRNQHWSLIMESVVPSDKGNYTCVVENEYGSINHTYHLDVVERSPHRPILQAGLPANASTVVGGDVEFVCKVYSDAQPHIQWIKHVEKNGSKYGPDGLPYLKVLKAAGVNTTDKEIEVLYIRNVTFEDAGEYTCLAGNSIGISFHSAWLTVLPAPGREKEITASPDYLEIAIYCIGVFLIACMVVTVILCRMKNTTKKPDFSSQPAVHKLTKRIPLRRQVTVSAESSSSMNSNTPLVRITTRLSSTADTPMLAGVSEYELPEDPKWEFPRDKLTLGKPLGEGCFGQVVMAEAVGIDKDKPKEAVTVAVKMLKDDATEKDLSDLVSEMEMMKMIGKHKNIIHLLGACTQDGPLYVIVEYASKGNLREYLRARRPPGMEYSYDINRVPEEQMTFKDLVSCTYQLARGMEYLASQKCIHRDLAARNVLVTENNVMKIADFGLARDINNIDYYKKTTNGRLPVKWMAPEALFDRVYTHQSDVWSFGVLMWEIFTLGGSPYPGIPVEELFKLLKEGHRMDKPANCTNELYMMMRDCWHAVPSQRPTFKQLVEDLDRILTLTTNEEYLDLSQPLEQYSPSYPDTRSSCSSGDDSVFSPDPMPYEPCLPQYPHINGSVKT
Put plainly: fluorescent ELISA assay for inhibitors of FGFR2 kinase. It is filed as biochemical. Conditions: Pyk2 peptide substrate, 60 minutes. On the procedure:
The enzymatic assays described herein are conducted according to the following procedures from commercially available reagents. In one non-limiting example, a fluorescent ELISA assay is used to identify and characterize inhibitors of FGFR2 kinase as described herein. This heterogeneous assay utilizes a biotinylated peptide with a tyrosine motif as a substrate and an anti-phospho-tyrosine antibody to measure phosphorylation of the substrate. The reaction is initiated by adding the test compound, 37 μM Pyk2 substrate (Midwest Biotech, Cat. #MBT2383), 12.5 μM ATP (Roche, Cat. #11 140 965 001) and 0.5 μM FGFR2 enzyme (Millipore, Cat. #14-742) sequentially to a non-binding polypropylene V-well plate. All reagents are in an assay buffer consisting of: 50 mM Tris-HCL, 0.02 mg/ml BSA, 10 mM MgCl2, 0.1 mM Na3VO4, 1 mM EGTA, 75 μM ATP, 0.01% NP-40, 2 mM DTT and 10% glycerol. The reaction is incubated for 60 minutes. As the reaction proceeds, FGFR2 phosphorylates tyrosines in the peptide. The reaction mixture is then moved to a blocked streptavidin-coated Nunc Maxisorb plate (coated with 100 ng streptavidin from Pierce (Cat. #15-124) per well), allowing for the capture of the biotinylated peptide. Peptides are captured for 30 minutes at room temperature, the phosphorylation of peptides continues during this phase. The reaction is stopped by washing the streptavidin-coated plate 6 times with TBST. Phosphorylated peptide is detected by adding anti-phospho-tyrosine antibody (Cell Signaling, Cat. #9411, diluted 1:3000) to the streptavidin-coated plate. Unbound anti-phospho-tyrosine antibody is removed by washing the streptavidin-coated plate 6 times with TBST. Secondary detection is performed using alkaline phosphatase tagged goat anti-mouse antibody (Pierce, Cat. #31320, diluted 1:4000) for one hour. Unbound secondary antibody is removed by washing the streptavidin-coated plate 6 times with TBST. The fluorescent readout is initiated by adding to the streptavidin-coated plate Promega Attophos substrate (Promega, Cat. #S1000, dilution=6 mg/10 ml), which, when dephosphorylated by alkaline phosphatase, emits a fluorescent signal of 595 nm in wavelength when excited by a signal of 400 nm in wavelength. The reading of the 595 nm signal is done on the Perkin Elmer Envision system. Compounds which prevent FGFR2 from phosphorylating the peptide result in a lower fluorescent signal. The 595 nm fluorescent signal is directly proportional to the activity of FGFR2. Thus, the inhibition of FGFR2 by compounds is monitored by the decrease in the 595 nm fluorescent signal.
On the technique in general: ELISA stands for enzyme-linked immunosorbent assay.

Setting [1] is: Homo sapiens, DLD-1, 72 h, DLD-1 cells, read-out: DLD-1 MTS 72 hr at 10 μM.
Setting [2] is: Homo sapiens, KATO III, 72 h, KATO III cells, read-out: KATO III MTS 72 hr at 10 μM.
The mark [3] stands for this setting: Homo sapiens, MDA-MB-231, 72 h, MDA-MB-231 cells, read-out: MDA-MB-231 MTS 72 hr at 10 μM.
[4] abbreviates: Homo sapiens, NCI-H1299, 72 h, NCI-H1299 cells, read-out: NCI-H1299 MTS 72 hr at 10 μM.
The mark [5] stands for this setting: PaCa-2, 72 h, PACA-2 cells, read-out: PACA-2 MTS 72 hr at 10 μM.

In the case of `Nc1nc(NC2Cc3ccccc3N(S(=O)(=O)c3ccc(Br)cc3)C2)c2cn[nH]c2n1` (stereo not drawn) [Compound 37, N4-(1-(4-bromophenylsulfonyl)-1,2,3,4-tetrahydroquinolin-3-yl)-1H-pyrazolo[3,4-d]pyrimidine-4,6-diamine], the inhibition at 10 µM with cancer cells (setting [1]), in the test with cancer cells (setting [2]), in the test on cancer cells (setting [3]), in the test on cancer cells (setting [4]) and with cancer cells (setting [5]) was < 50% in each case. Further, inhibition against FGFR2 (N549H) was half-maximal at 3600 nM (IC50).

On to `Nc1nc(NC2Cc3ccccc3N(S(=O)(=O)c3ccc(Cl)c(Cl)c3)C2)c2cn[nH]c2n1` (stereo not drawn) [Compound 39, N4-(1-(3,4-dichlorophenylsulfonyl)-1,2,3,4-tetrahydroquinolin-3-yl)-1H-pyrazolo[3,4-d]pyrimidine-4,6-diamine], for which the inhibition at 10 µM with cancer cells (setting [1]) is < 50%; in the test on cancer cells (setting [2]), 50 to 79%; in the test on cancer cells (setting [3]) it was < 50%; in the test on cancer cells (setting [4]), < 50%; in the test with cancer cells (setting [5]) it was < 50%. Moreover, the IC50 on FGFR2 (N549H) was 880 nM.

Consider `CC(=O)Nc1ccc(S(=O)(=O)N2CC(Nc3nc(N)nc4[nH]ncc34)Cc3ccccc32)cc1` (stereo not drawn) [Compound 40, N-(4-(3-(6-amino-1H-pyrazolo[3,4-d]pyrimidin-4-ylamino)-3,4-dihydroquinolin-1(2H)-ylsulfonyl)phenyl)acetamide], for which the inhibition at 10 µM in the test on cancer cells (setting [1]), in the test with cancer cells (setting [2]), in the test on cancer cells (setting [3]), with cancer cells (setting [4]) and in the test on cancer cells (setting [5]) was < 50% in each case. Also, the IC50 at FGFR2 (N549H) is > 30000 nM.

For the compound `COc1ccc(S(=O)(=O)N2CC(Nc3nc(N)nc4[nH]ncc34)Cc3ccccc32)cc1` (stereo not drawn) [Compound 42, N4-(1-(4-methoxyphenylsulfonyl)-1,2,3,4-tetrahydroquinolin-3-yl)-1H-pyrazolo[3,4-d]pyrimidine-4,6-diamine], the inhibition at 10 µM was < 50% in the test on cancer cells (setting [1]); 50 to 79% in the test on cancer cells (setting [2]); < 50% in the test with cancer cells (setting [3]); < 50% with cancer cells (setting [4]); < 50% in the test on cancer cells (setting [5]). The same compound showed an IC50 on FGFR2 (N549H) of 15900 nM.

As for `Nc1nc(NC2Cc3ccccc3N(S(=O)(=O)c3ccc(F)c(Cl)c3)C2)c2cn[nH]c2n1` (stereo not drawn) [Compound 43, N4-(1-(3-chloro-4-fluorophenylsulfonyl)-1,2,3,4-tetrahydroquinolin-3-yl)-1H-pyrazolo[3,4-d]pyrimidine-4,6-diamine], the inhibition at 10 µM in the test on cancer cells (setting [1]), with cancer cells (setting [2]), in the test on cancer cells (setting [3]), in the test on cancer cells (setting [4]) and in the test with cancer cells (setting [5]) was > 79% each time. At FGFR2 (N549H), this compound returned an IC50 of 270 nM.

Take `Nc1nc(NC2Cc3ccccc3N(S(=O)(=O)c3ccccc3F)C2)c2cn[nH]c2n1` (stereo not drawn) [Compound 45, N4-(1-(2-fluorophenylsulfonyl)-1,2,3,4-tetrahydroquinolin-3-yl)-1H-pyrazolo[3,4-d]pyrimidine-4,6-diamine]: the inhibition at 10 µM in the test with cancer cells (setting [1]), with cancer cells (setting [2]), in the test with cancer cells (setting [3]), with cancer cells (setting [4]) and in the test with cancer cells (setting [5]) was < 50% in each case. In addition, inhibition at FGFR2 (N549H) was half-maximal at 380 nM (IC50).

As to `Nc1nc(NC2Cc3ccccc3N(S(=O)(=O)c3ccc(F)cc3F)C2)c2cn[nH]c2n1` (stereo not drawn) [Compound 47, N4-(1-(2,4-difluorophenylsulfonyl)-1,2,3,4-tetrahydroquinolin-3-yl)-1H-pyrazolo[3,4-d]pyrimidine-4,6-diamine], the inhibition at 10 µM in the test on cancer cells (setting [1]), in the test on cancer cells (setting [2]), in the test on cancer cells (setting [3]), in the test with cancer cells (setting [4]) and in the test with cancer cells (setting [5]) was < 50% in each case. The IC50 against FGFR2 (N549H) is 390 nM.

With `CC(=O)c1ccc(S(=O)(=O)N2CC(Nc3nc(N)nc4[nH]ncc34)Cc3ccccc32)cc1` (stereo not drawn) [Compound 48, 1-(4-(3-(6-amino-1H-pyrazolo[3,4-d]pyrimidin-4-ylamino)-3,4-dihydroquinolin-1(2H)-ylsulfonyl)phenyl)ethanone], the inhibition at 10 µM is > 79% in the test with cancer cells (setting [1]); 50 to 79% with cancer cells (setting [2]); > 79% with cancer cells (setting [3]); < 50% with cancer cells (setting [4]); > 79% in the test on cancer cells (setting [5]). The compound also came in with an IC50 against FGFR2 (N549H) of 17200 nM.

For the compound `Cc1ccc(-c2ccc(S(=O)(=O)N3CC(Nc4nc(N)nc5[nH]ncc45)Cc4ccccc43)cc2)cc1` (stereo not drawn) [Compound 50, N4-(1-(4′-methylbiphenyl-4-ylsulfonyl)-1,2,3,4-tetrahydroquinolin-3-yl)-1H-pyrazolo[3,4-d]pyrimidine-4,6-diamine], the inhibition at 10 µM with cancer cells (setting [1]) was 50 to 79%; with cancer cells (setting [2]) it was 50 to 79%; in the test on cancer cells (setting [3]), < 50%; in the test with cancer cells (setting [4]), < 50%; in the test with cancer cells (setting [5]), 50 to 79%. Besides, the IC50 against FGFR2 (N549H) was > 30000 nM.

As to `Nc1nc(NC2Cc3ccccc3N(S(=O)(=O)c3csc4ccccc34)C2)c2cn[nH]c2n1` (stereo not drawn) [Compound 51, N4-(1-(benzo[b]thiophen-3-ylsulfonyl)-1,2,3,4-tetrahydroquinolin-3-yl)-1H-pyrazolo[3,4-d]pyrimidine-4,6-diamine], the inhibition at 10 µM in the test with cancer cells (setting [1]) was < 50%; with cancer cells (setting [2]), 50 to 79%; in the test on cancer cells (setting [3]), < 50%; with cancer cells (setting [4]) it was < 50%; in the test on cancer cells (setting [5]), 50 to 79%. The same compound gave an IC50 at FGFR2 (N549H) of 3850 nM.

`Nc1nc(NC2Cc3ccccc3N(S(=O)(=O)c3ccccc3Cl)C2)c2cn[nH]c2n1` (stereo not drawn) [Compound 52, N4-(1-(2-chlorophenylsulfonyl)-1,2,3,4-tetrahydroquinolin-3-yl)-1H-pyrazolo[3,4-d]pyrimidine-4,6-diamine]: the inhibition at 10 µM in the test with cancer cells (setting [1]), in the test with cancer cells (setting [2]), in the test with cancer cells (setting [3]), with cancer cells (setting [4]) and in the test on cancer cells (setting [5]) was < 50% throughout. For the same compound, the IC50 on FGFR2 (N549H) is 1200 nM.

Consider `Nc1nc(NC2Cc3ccccc3N(S(=O)(=O)c3ccc(F)cc3Cl)C2)c2cn[nH]c2n1` (stereo not drawn) [Compound 53, N4-(1-(2-chloro-4-fluorophenylsulfonyl)-1,2,3,4-tetrahydroquinolin-3-yl)-1H-pyrazolo[3,4-d]pyrimidine-4,6-diamine], for which the inhibition at 10 µM with cancer cells (setting [1]), in the test with cancer cells (setting [2]), in the test with cancer cells (setting [3]), in the test on cancer cells (setting [4]) and in the test with cancer cells (setting [5]) was < 50% each time. For the same compound, on FGFR2 (N549H), 410 nM corresponded to half-maximal inhibition (IC50).

As to `Cn1ccc(S(=O)(=O)N2CC(Nc3nc(N)nc4[nH]ncc34)Cc3ccccc32)n1` (stereo not drawn) [Compound 54, N4-(1-(1-methyl-1H-pyrazol-3-ylsulfonyl)-1,2,3,4-tetrahydroquinolin-3-yl)-1H-pyrazolo[3,4-d]pyrimidine-4,6-diamine], the inhibition at 10 µM with cancer cells (setting [1]), in the test on cancer cells (setting [2]), in the test on cancer cells (setting [3]), in the test on cancer cells (setting [4]) and in the test on cancer cells (setting [5]) was < 50% each time. The IC50 against FGFR2 (N549H) was > 30000 nM.

On to `Nc1nc(NC2Cc3ccccc3N(S(=O)(=O)c3cc(F)ccc3F)C2)c2cn[nH]c2n1` (stereo not drawn) [Compound 55, N4-(1-(2,5-difluorophenylsulfonyl)-1,2,3,4-tetrahydroquinolin-3-yl)-1H-pyrazolo[3,4-d]pyrimidine-4,6-diamine], for which the inhibition at 10 µM with cancer cells (setting [1]) was > 79%; in the test on cancer cells (setting [2]), 50 to 79%; in the test with cancer cells (setting [3]), 50 to 79%; with cancer cells (setting [4]) it was < 50%; in the test with cancer cells (setting [5]) it was > 79%. On FGFR2 (N549H), this compound displayed an IC50 of 190 nM.
